From patent US5356935A, “Reduced phenanthrenes” (Eli Lilly and Company, priority 1993, dated 1994) come the findings set out here.

Test [1] deals with T1, Type II 5α-reductase (Homo sapiens, UniProt P31213).
T1 construct: from tissue; host or cells: human prostate tissue from surgery, 100,000×g pellet of homogenate
T1 sequence (P31213 1-254): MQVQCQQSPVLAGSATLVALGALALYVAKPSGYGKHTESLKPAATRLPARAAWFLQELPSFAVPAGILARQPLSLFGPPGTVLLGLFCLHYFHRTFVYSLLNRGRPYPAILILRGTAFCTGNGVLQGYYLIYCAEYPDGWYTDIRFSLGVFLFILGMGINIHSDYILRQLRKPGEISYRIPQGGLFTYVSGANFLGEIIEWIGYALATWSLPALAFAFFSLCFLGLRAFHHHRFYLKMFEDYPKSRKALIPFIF
Kind of test: Human Type II steroid 5α-reductase assay (human prostate enzyme, [3H]-testosterone conversion). It is filed as biochemical. To be noted: compared to control reaction mixtures, read-out: percent inhibition of Type II 5AR; for inhibition at 1 µM: compound concentration 1 μM; for inhibition at 3 µM: compound concentration 3 μM; for inhibition at 10 µM: compound concentration 10 μM; for inhibition at 0.3 µM: compound concentration .3 μM. How it is done: The same procedure as above was used for preparations using tissue from prostate surgery with the following changes: The buffer used was 20 mM sodium phosphate, pH 6.5; and the pellet was resuspended in the sodium phosphate buffer containing 20% glycerol.
(§1) This enzyme assay is based on the conversion of [^3 H]-testosterone to [^3 H]-5α-dihydrotestosterone (DHT) and other 5α-reduced metabolites. While about 90% of the 5α-reduced metabolites formed in these assays was DHT, androstanedione was formed at about 10%. Essentially no androsterone was detected. In a total volume of 1.0 ml, the assay contained 2.6 μCi [^3 H]-testosterone (50 nM), 500 μM of reduced nicotine adeninc dinucleotide phosphate, 100 mM Tris-HCl, pH 7.5, (in Type II assays, 40 mM sodium acetate at pH 5.5 is used instead of Tris-HCl) and test compounds as indicated. Test compounds were added in 20 μl of dimethylsulfoxide (20 μl of dimethylsulfoxide was added to blanks and controls). The reaction was initiated by the addition of 0.5 mg of Type I or Type II 5α-reductase. The reaction mixture was incubated for 30 min at 25° and terminated by the addition of 1 ml ice-cold stopping solution. The stopping solution contained 40 μM each of non-radioactivetestosterone, DHT, androstenedione, androstanedione, androsterone, androstan-3β,17β-diol, and androstan-3α,17β-diol.
(§2) The samples were prepared for high performance liquid chromatography by solid phase extraction. Disposable solid matrix extraction columns (C-18 reversed;phase, 6 ml, 500 mg; Bond Elut™ from Analytichem International; Harbor City, Calif.) were conditioned by washing with 5 ml of methanol followed by 5 ml of deionized water. The reaction mixtures were then applied to the columns. The columns were subsequently washed with 5 ml of acetone:water (1:4), followed by 0.3 ml of methanol. The samples were then eluted with 3 ml of methanol and collected in 20 ml scintillation vials. Three ml of water was then added to each scintillation vial. The solutions were then transferred to tubes and centrifuged for 30 min at 1000×g to remove any particulate material before chromatography.
(§3) The [^3 H]-testosterone substrate and its metabolites were separated by chromatography using a C-18 reversed phase column (Beckman Ultrasphere 5 μm spherical 80A pore, part no. 235329, 4.6 mm i.d.×[…]) with an isocratic mobile phase (46 water: 46 methanol: 8 tetrahydrofuran by volume). The column temperature was maintained at 35° and the flow rate was 1.5 ml/min. A 400 μl aliquot was injected onto the column and radioactivity was determined using a Beckman 171 in-line flow radioisotope detector in conjunction with Rainin Dynamax™ software and a Macintosh computer. The flow rate of the Atomflow™ scintillation fluid was 4.5 ml / min.

The target of test [2] is T2, Type I 5α-reductase (Homo sapiens, UniProt P18405).
T2 construct: Scalp punch biopsies from graft recipient sites were obtained from human hair transplant procedures; from tissue; host or cells: human scalp punch biopsies (pooled, 60-75 punches from one surgical procedure), 100,000×g pellet of homogenate
T2 sequence (P18405 1-259): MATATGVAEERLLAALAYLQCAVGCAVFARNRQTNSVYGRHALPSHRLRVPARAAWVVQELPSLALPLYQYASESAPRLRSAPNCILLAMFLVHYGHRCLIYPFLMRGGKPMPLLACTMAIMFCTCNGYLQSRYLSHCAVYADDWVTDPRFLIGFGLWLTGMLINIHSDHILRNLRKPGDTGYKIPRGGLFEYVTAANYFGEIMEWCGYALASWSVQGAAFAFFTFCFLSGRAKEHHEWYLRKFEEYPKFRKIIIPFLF
Put plainly: Human Type I steroid 5α-reductase assay (human scalp enzyme, [3H]-testosterone conversion). It is filed as biochemical. To be noted: compared to control reaction mixtures, read-out: percent inhibition of Type I 5AR; for inhibition at 0.01 µM: compound concentration .01 μM; for inhibition at 0.03 µM: compound concentration .03 μM; for inhibition at 0.1 µM: compound concentration .1 μM. The method, then:
Scalp punch biopsies from graft recipient sites were obtained from human hair transplant procedures immediately after surgery and were frozen on dry ice and stored at -80° C. Approximately 60-75 punches from one surgical procedure were used to generate an enzyme preparation. The subcutaneous tissue was cut away and discarded. The skin was frozen with liquid nitrogen and pulverized to powder. The powder was homogenized in 30 ml of ice-cold buffer (20 mM Tris-HCl, pH 7.5) using a Brinkmann Polytron (Westbury, N.Y.) with a PTA 10-S robe and a setting of 7. The homogenization procedure consisted of four 15 second pulses. Connective tissue was cleared from the probe with forceps between pulses. The homogenate was then filtered through cheese cloth and the filtrate centrifuged at 100,000×g for one hour in a Beckman L8-60M ultracentrifuge. The pellet was resuspended by homogenization with a Dounce homogenizer using the same buffer solution. An aliquot was taken for protein determination by the Lowry method, Lowry, et al., Protein Measurement with the Folin Phenol Reagent, J. Biol. Chem., 193,265-75 (1951). Aliquots of the enzyme preparation were stored at -80° until use.
as §1, §2, §3

For orientation: inhibition means the drop in the measured response relative to a control, in per cent. Take `C[C@]12CCC(=O)C(N)=C1CCc1cc(Cl)ccc12` [Example 1, (R)-1-amino-7-chloro-4,4a,9,10-tetrahydro-4a-methyl-2(3H)-phenanthreneone]: in test [1], the inhibition at 1 µM is 55%, the inhibition at 3 µM stood at 49%, the inhibition at 10 µM came to 63% and the inhibition at 0.3 µM was 47%. In test [2], the inhibition at 0.01 µM turned out to be 0%, the inhibition at 0.03 µM was determined as 35% and the inhibition at 0.1 µM amounted to 42%.

For `C[C@]12CCC(=O)C(N)=C1C=Cc1cc(Cl)ccc12` [Example 2, (R)-1-amino-7-chloro-4,4a-dihydro-4a-methyl-2(3H)-phenanthreneone], in test [1], the inhibition at 1 µM is 16%, the inhibition at 3 µM is 33%, the inhibition at 10 µM is 36% and the inhibition at 0.3 µM came out at 7%. Besides, in test [2], the inhibition at 0.01 µM turned out to be 0%, the inhibition at 0.03 µM turned out to be 3% and the inhibition at 0.1 µM stood at 26%.
